Data reported in patent publication US20160271153A1, “Novel Methods For The Treatment Of Cardiac Arrhythmias” (United States Government as Represented by The Department …, priority 2013, published 2016).
Positions count from the first letter of the chain named. Entries after “also recorded” stand apart in the source; their conditions may differ.

Tests used:
[1] = test system: Cav1−/− mice; experiment: LV epicardial conduction velocity measurement (72-electrode Flex-MEA); assay type: in vivo, mouse
Method: LV conduction velocity was measured in anesthetized WT (n=6) and Cav1−/− (with and without 4 week PP1 treatment, n=6 in each group) mice using a flexible multielectrode array (Flex-MEA, 72 electrodes) system (Multichannel systems, Reutlingen, Germany) according to manufacturer's instructions.
Mid-anterior LV epicardial electrical propagation was recorded under right-ventricular pacing (750 bpm); the color mapping of LV conduction propagation, as well as the calculation of LV conduction velocity, were carried out using Cardio 2D software (Multichannel systems, Reutlingen, Germany)

[2] = test system: Cav1−/− mice; experiment: Programmed ventricular stimulation, ventricular arrhythmia inducibility; assay type: in vivo, mouse; conditions: 4 weeks of PP1, n=6, untreated Cav1−/− 75% inducible
Method: Surface electrocardiograms (ECG) were recorded and ventricular arrhythmia inducibility was determined in WT and Cav1^−/− with and without 4 weeks of PP1 treatment (n=4-6 in each group) using described methods under general anesthesia with isofurane as described in Berul et al., In vivo cardiac electrophysiology studies in the mouse, Circulation 1996, 94:2641-2648.
Surface electrocardiograms (ECG) were monitored and recorded with needle electrodes connected to a dual bioamplifier (PowerLab 26T, AD Instruments, Dunedin, New Zealand) as described in Yang et al., Exercise training and PI3Kα-induced electrical remodeling is independent of cellular hypertrophy and Akt signaling, J Mol Cell Cardiol. 2012, 53:532-541.
Programmed ventricular stimulation was performed with a RV epicardial electrode connected to STG1008 stimulator (Multichannel systems, Reutlingen, Germany), where eight consecutive beats were paced at 60 ms basic cycle length, followed by triple extrastimuli with incrementally deceasing cycle lengths between 20-55 ms, and inducible ventricular tachycardia was defined as >3 consecutive ventricular beats. See, Bevilacqua et al., A targeted disruption in connexin40 leads to distinct atrioventricular conduction defects, J Interv Card Electrophysiol. 2000, 4:459-467.

[3] = test system: p-cSrc at Tyr416; experiment: Western blot of LV protein lysates, p-cSrc; assay type: in vivo, mouse
Method: (§1) For Western blots, total protein lysates were prepared from the LV of 6 week-old WT control, ACE8/8 with and without 2 week treatment of mitochondria-targeted antioxidant (2-(2,2,6,6-Tetra-methylpiperidin-1-oxyl-4-ylamino)-2-oxoethyl)-triphenylphosphonium chloride (MitoTEMPO, see below), as well as from adult (2-4 month) Cav1−/− mice with and without 4 weeks treatment of cSrc inhibitor 1-(1,1-dimethylethyl)-[…]-1H-pyrazolo[3,4-d]pyrimidin-4-amine (PP1, see below).
(§2) In some cases, protein lysates were prepared from the LV cardiomyocytes isolated from ACE8/8 animals using described methods. 13 Total protein lysates were fractionated on 8-15% SDS-PAGE and transferred to PVDF membranes, incubated in 5% skim milk in PBS containing 0.1% Tween 20 (blocking buffer) for 1 h at room temperature, followed by overnight incubation at 4° C. with primary antibodies (rabbit monoclonal anti-cSrc, p-cSrc at Tyr416, Cx43, C-terminal Src kinase [CSK] and Tyr14 p-Cav1 antibodies from Cell Signaling, mouse monoclonal anti-Cav1 and Cav3 antibodies from BD Biosciences, rabbit monoclonal anti-eNOS, p-eNOS and nNOS antibodies from Santa Cruz).
(§3) For a loading control, the membranes were blotted with primary antibodies against glyceraldehydes-3-phosphate dehydrogenase (GAPDH) (Santa Cruz Biotech, Santa Cruz, Calif.). After washing, the membranes were incubated for 1 h at room temperature with alkaline phosphatase-conjugated secondary antibody diluted in blocking buffer, and bound antibodies were detected using a chemiluminescent alkaline phosphate substrate. Protein band intensities were quantified by densitometry (Quantity One Basic, Bio-Rad Laboratory, Hercules, Calif.) and the band densities of each protein in individual samples were normalized to that of GAPDH in the same sample.

[4] = test system: Cx43; experiment: Western blot of LV protein lysates, Cx43; assay type: in vivo, mouse
Method: as §1, §2, §3

[5] = test system: Cav1-cSrc binding; experiment: Co-immunoprecipitation in HEK cells co-transfected with mouse cSrc and Cav1; assay type: cell-based; conditions: 10 min
Method: (§4) Immunoprecipitation (IP) of Cav1 was conducted using a magnetic IP kit from Thermo Scientific (Waltham, Mass.). Protein lysates from total LV or isolated LV myocytes (with 1000 μg total protein) from control and ACES/8 mice were incubated with 10 μg of mouse anti-Cav1 monoclonal antibodies overnight at 4° C.
(§5) The immune complex was bound to protein A/G magnetic beads and collected with a magnetic stand. Proteins co-immunoprecipitated with Cav1 were eluted and subjected to gel electrophoresis and Western blotting using the antibodies described above where appropriate. The amount of proteins co-immunoprecipitated with Cav1 was normalized to total Cav1 co-immunoprecipitated in each sample. Similar methods were used to analyze the proteins that co-immunoprecipitated with Cav3 and cSrc using antibodies against Cav3 (mouse monoclonal, BD Biosciences, San Jose, Calif.) or cSrc (rabbit monoclonal, Cell Signaling Technology, Danvers, Mass.).
(§6) Transfection of HEK cells with designated plasmids was conducted using Lipofectamine 2000 according to manufacturer's protocol.
To test if increased Cav1 SNO could result in Cav1-cSrc dissociation, human embryonic kidney (HEK) cells transfected with mouse Cav1 and cSrc were treated with 20 μM nitric oxide (NO) donor S-nitroso-N-acetyl-DL-penicillamine (SNAP) or vehicle for 10 min.

[6] = biological target: T1, WT mouse Cav1 (Mus musculus, UniProt P49817); experiment: Biotin-switch assay for Cav1 S-nitrosation in transfected HEK cells, WT Cav1; assay type: cell-based; conditions: SNAP 20 μM, 10 min
T1 construct: A full-length mouse Cav1 cDNA clone in pCMV-SPORT6 vector; host or cells: HEK cells
T1 sequence (P49817 1-178): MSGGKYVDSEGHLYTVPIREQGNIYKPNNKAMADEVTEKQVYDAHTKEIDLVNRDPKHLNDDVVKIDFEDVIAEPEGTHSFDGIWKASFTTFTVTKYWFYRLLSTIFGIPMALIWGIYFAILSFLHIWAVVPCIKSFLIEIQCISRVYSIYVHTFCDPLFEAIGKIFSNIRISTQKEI
Method: as §6
S-nitrosated Cav1 was detected in cells (isolated ventricular cardiomyocytes from control and ACES/8 mice or HEK cells transfected with WT Cav1 or Cav1 mutants [C156S, C143S or C133S], with or without NO donor, SNAP [20 μM, 10 min], treatment) using the methods described in Jaffrey et al., Protein S-nitrosylation: a physiological signal for neuronal nitric oxide, Nat Cell Biol. 2001, 3:193-197; and Haendeler et al., Redox regulatory and anti-apoptotic functions of thioredoxin depend on S-nitrosylation at cysteine 69, Nat Cell Biol. 2002, 4:743-749.
Cells were lysed with HENS buffer (25 mM HEPES, pH 7.7, 0.1 mM EDTA, 0.01 mM neocuproine and 1% SDS) and centrifuged at 20,000 g for 15 min. The total cell protein was incubated in 20 mM methylmethanthiosulphate (MMTS) for 20 min at 50° C. and vortexed for 5 s every 2 min. Cellular protein was precipitated with acetone.
After removing acetone, protein pellet was resuspended in HENS buffer. […] Cav1 was then immunoprecipitated from each sample using monoclonal Cav1 antibody (BD Biosciences, San Jose, Calif.), where S-nitrosated Cav1 was detected by HRP-conjugated streptavidin following gel electrophoresis and Western blotting. The amount of S-nitrosated Cav1 was quantified and normalized to total Cav1 in each sample

[7] = biological target: T2, C133S Cav1 (Mus musculus, UniProt P49817, C133S); experiment: Biotin-switch assay for Cav1 S-nitrosation in transfected HEK cells, C133S Cav1; assay type: cell-based; conditions: SNAP 20 μM, 10 min
T2 construct: A full-length mouse Cav1 cDNA clone in pCMV-SPORT6 vector; expressed in transfected cells; host or cells: HEK cells
T2 sequence (P49817 1-178 C133S): T1 sequence (P49817 1-178) with C133S
Method: (§7) A full-length mouse Cav1 cDNA clone in pCMV-SPORT6 vector was acquired from Thermo Scientific (MGC mouse Cav1 cDNA, clone ID 4484857). The cysteine-to-serine Cav1 mutants (C133S, C143S and C156S) were generated from this WT mouse Cav1 clone using the QuickChange II Site-Directed Mutagenesis kit (Agilent Technologies) according to the manufacturer's instructions.
as §6
(§8) S-nitrosated Cav1 was detected in cells (isolated ventricular cardiomyocytes from control and ACES/8 mice or HEK cells transfected with WT Cav1 or Cav1 mutants [C156S, C143S or C133S], with or without NO donor, SNAP [20 μM, 10 min], treatment) using the methods described in Jaffrey et al., Protein S-nitrosylation: a physiological signal for neuronal nitric oxide, Nat Cell Biol. 2001, 3:193-197; and Haendeler et al., Redox regulatory and anti-apoptotic functions of thioredoxin depend on S-nitrosylation at cysteine 69, Nat Cell Biol. 2002, 4:743-749. […]
(§9) After removing acetone, protein pellet was resuspended in HENS buffer. […] Cav1 was then immunoprecipitated from each sample using monoclonal Cav1 antibody (BD Biosciences, San Jose, Calif.), where S-nitrosated Cav1 was detected by HRP-conjugated streptavidin following gel electrophoresis and Western blotting. […]

[8] = biological target: T3, C143S Cav1 (Mus musculus, UniProt P49817, C143S); experiment: Biotin-switch assay for Cav1 S-nitrosation in transfected HEK cells, C143S Cav1; assay type: cell-based; conditions: SNAP 20 μM, 10 min
T3 construct: A full-length mouse Cav1 cDNA clone in pCMV-SPORT6 vector; expressed in transfected cells; host or cells: HEK cells
T3 sequence (P49817 1-178 C143S): T1 sequence (P49817 1-178) with C143S
Method: as §7, §6, §8, §9

[9] = biological target: T4, C156S Cav1 (Mus musculus, UniProt P49817, C156S); experiment: Biotin-switch assay for Cav1 S-nitrosation in transfected HEK cells, C156S Cav1; assay type: cell-based; conditions: SNAP 20 μM, 10 min
T4 construct: A full-length mouse Cav1 cDNA clone in pCMV-SPORT6 vector; expressed in transfected cells; host or cells: HEK cells
T4 sequence (P49817 1-178 C156S): T1 sequence (P49817 1-178) with C156S
Method: as §7, §6, §8, §9

[10] = test system: Cav1-eNOS interaction; experiment: Co-immunoprecipitation with Cav1 in ACE8/8 LV, eNOS; assay type: in vivo, mouse; conditions: ACE8/8 mice, MitoTEMPO 0.7 mg/kg/day i.p. for 2 weeks, n=6
Method: as §4, §5

[11] = test system: Cav1-cSrc binding; experiment: Co-immunoprecipitation with Cav1 in ACE8/8 LV, cSrc; assay type: in vivo, mouse; conditions: ACE8/8 mice, MitoTEMPO 0.7 mg/kg/day i.p. for 2 weeks, n=6
Method: as §4, §5

[12] = test system: ACE8/8 mice; conditions: cited from earlier work
[13] = Cav1−/− mice, PP1 1.5 mg/kg/dose i.p. 3 times per week for 4 weeks, n=6, 1.5 mg/kg
[14] = ACE8/8 mice, MitoTEMPO 0.7 mg/kg/day i.p. for 2 weeks
[15] = ACE8/8 mice, MitoTEMPO 0.7 mg/kg/day i.p. for 2 weeks, n=6

Cc1ccc(-c2nn(C(C)(C)C)c3ncnc(N)c23)cc1 [PP1, 1-(1,1-dimethylethyl)-1-(4-methylphenyl)-1H-pyrazolo[3,4-d]pyrimidin-4-amine]
LV conduction velocity in Cav1−/− LV (in words) ([1]; 4 weeks of PP1 treatment): normalized | LV conduction velocity ([1]; PP1 1.5 mg/kg/dose i.p. 3 times per week for 4 weeks, n=6, untreated Cav1−/− 0.35±0.03, WT 0.50±0.09): 0.43±0.01 mm/ms | inducible for ventricular arrhythmias / VT with programmed stimulation [2]: 0% | LV p-cSrc expression / cSrc phosphorylation (in words) [3, 13]: normalized; also recorded: prevented | LV Cx43 expression / Cx43 downregulation (in words) [4, 13]: normalized; also recorded: prevented

CC(=O)NC(C(=O)O)C(C)(C)SN=O (racemic) [SNAP, S-nitroso-N-acetyl-DL-penicillamine]
interaction between cSrc and Cav1 (in words) ([5]; HEK cells co-transfected with mouse cSrc and Cav1, SNAP 20 μM, n=4): reduced | decrease of Cav1-cSrc binding compared to control ([5]; HEK cells transfected with mouse Cav1 and cSrc, SNAP 20 μM): 58% | Cav1 SNO (S-nitrosation), WT Cav1 [6]: significantly increased | Cav1 SNO (S-nitrosation), C133S Cav1 [7]: significantly increased | Cav1 SNO (S-nitrosation), C143S Cav1 [8]: significantly increased | Cav1 SNO (S-nitrosation), C156S Cav1 [9]: not

CC1(C)CC(NC(=O)C[P+](c2ccccc2)(c2ccccc2)c2ccccc2)CC(C)(C)N1[O] [MitoTEMPO, (2-(2,2,6,6-Tetra-methylpiperidin-1-oxyl-4-ylamino)-2-oxoethyl)-triphenylphosphonium chloride]
reduction of cardiac cSrc phosphorylation compared to untreated ACE8/8 animals [3, 14]: 63% | cSrc activation/phosphorylation in ACE8/8 LV (in words) [3, 15]: significantly attenuated | increase of Cx43 expression compared to untreated ACE8/8 animals [4, 14]: 1.9 fold | Cx43 downregulation in ACE8/8 LV (in words) [4, 15]: significantly attenuated | Cav1-eNOS interaction in ACE8/8 LV (in words) [10]: reversed; also recorded: significantly reduced | Cav1-cSrc binding in ACE8/8 LV (in words) [11]: reversed; also recorded: restored | elevated mitoROS in ACE8/8 hearts ([12]; MitoTEMPO 0.7 mg/kg/day i.p. for 2 weeks, to levels similar to WT controls): normalizes | Cx43 expression in ACE8/8 mice ([12]; from Sovari et al. 2013): restores | gap junction conduction in ACE8/8 mice ([12]; from Sovari et al. 2013): normalizes | ventricular arrhythmias and sudden cardiac death in ACE8/8 mice ([12]; from Sovari et al. 2013): ameliorates
